The source of these data is PubChem BioAssay AID2060508 (Molecular Pharmacology Branch, DTP, NCI, 2025).

The term viability, T/C denotes the result in the treated group divided by that in the control group, in per cent.

The structures appear in SMILES notation.
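Also: spheroids exposed to compounds for seven days; 100% = DMSO vehicle control viability.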

The first experiment has as its system 454973-116-R2-J3-PDC spheroids, viability, % test/control. Put plainly: Anticancer human tumor 454973-116-R2-J3-PDC patient-derived pancreatic carcinoma cell line growth inhibition [GQUAD]. The following applies: second compound 3.16 µM; first compound 0.1 µM; hits give low values; spheroids with HUVEC and MSC. The procedure, abridged: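 Tumor cells were grown as complex spheroids with HUVEC endothelial cells and mesenchymal stem cells as stroma. G-quadruplex stabilizers were combined with targeted agents over half-log dilutions from near the clinical Cmax, or from 10 microM.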
For the compound `CC1COCCN1c1cc(C2(S(C)(=N)=O)CC2)nc(-c2ccnc3[nH]ccc23)n1` (configuration not stated) + Cc1cnc(CNC(=O)c2c(=O)c3ccc(N4CCCN(C)CC4)nc3n3c2sc2ccccc23)cn1, the viability, T/C was 66.1%.
On the same count and under the same terms, to `COc1ccc([C@@H](O)c2cc(-c3ncnc4cc(N5CCOCC5)ccc34)c(F)cc2Cl)nn1` + Cc1cnc(CNC(=O)c2c(=O)c3ccc(N4CCCN(C)CC4)nc3n3c2sc2ccccc23)cn1 belongs 54.3%.

The experiment is the same for the next values; noted with them: second compound 3.16 µM; first compound 0.316 µM; hits give low values; spheroids with HUVEC and MSC.
On to `CC1COCCN1c1cc(-c2ccnn2C)c2ccnc(-c3ccn[nH]3)c2n1` (configuration not stated) + Cc1cnc(CNC(=O)c2c(=O)c3ccc(N4CCCN(C)CC4)nc3n3c2sc2ccccc23)cn1, for which the viability, T/C was 31.5%.
On to `CC1COCCN1c1cc(C2(O)CC3CCC(C2)O3)c2cnn(-c3ccn[nH]3)c2n1` (configuration not stated) + Cc1cnc(CNC(=O)c2c(=O)c3ccc(N4CCCN(C)CC4)nc3n3c2sc2ccccc23)cn1, for which the viability, T/C was 31.6%.
Same read-out and setting: to `CC1COCCN1c1cc(C2(S(C)(=N)=O)CC2)nc(-c2ccnc3[nH]ccc23)n1` (configuration not stated) + Cc1cnc(CNC(=O)c2c(=O)c3ccc(N4CCCN(C)CC4)nc3n3c2sc2ccccc23)cn1 belongs 59.4%; to `COc1ccc([C@@H](O)c2cc(-c3ncnc4cc(N5CCOCC5)ccc34)c(F)cc2Cl)nn1` + Cc1cnc(CNC(=O)c2c(=O)c3ccc(N4CCCN(C)CC4)nc3n3c2sc2ccccc23)cn1, 61.2%.

Staying with this experiment, now noted: second compound 3.16 µM; first compound 1 µM; hits give low values; spheroids with HUVEC and MSC.
For the compound `CC1COCCN1c1cc(-c2ccnn2C)c2ccnc(-c3ccn[nH]3)c2n1` (configuration not stated) + Cc1cnc(CNC(=O)c2c(=O)c3ccc(N4CCCN(C)CC4)nc3n3c2sc2ccccc23)cn1, the viability, T/C was 27.2%.
Still for that read-out and setting: to `CC1COCCN1c1cc(C2(O)CC3CCC(C2)O3)c2cnn(-c3ccn[nH]3)c2n1` (configuration not stated) + Cc1cnc(CNC(=O)c2c(=O)c3ccc(N4CCCN(C)CC4)nc3n3c2sc2ccccc23)cn1 belongs 23.4%.
Still for that read-out and setting: the result for `CC1COCCN1c1cc(C2(S(C)(=N)=O)CC2)nc(-c2ccnc3[nH]ccc23)n1` (configuration not stated) + Cc1cnc(CNC(=O)c2c(=O)c3ccc(N4CCCN(C)CC4)nc3n3c2sc2ccccc23)cn1 reads 46.9%.
On the same count and under the same terms, to `COc1ccc([C@@H](O)c2cc(-c3ncnc4cc(N5CCOCC5)ccc34)c(F)cc2Cl)nn1` + Cc1cnc(CNC(=O)c2c(=O)c3ccc(N4CCCN(C)CC4)nc3n3c2sc2ccccc23)cn1 belongs 41.5%.

Staying with this experiment, now noted: second compound 3.16 µM; first compound 3.16 µM; hits give low values; spheroids with HUVEC and MSC.
Take `CC1COCCN1c1cc(-c2ccnn2C)c2ccnc(-c3ccn[nH]3)c2n1` (configuration not stated) + Cc1cnc(CNC(=O)c2c(=O)c3ccc(N4CCCN(C)CC4)nc3n3c2sc2ccccc23)cn1: the viability, T/C is 20.2%.
For the compound `CC1COCCN1c1cc(C2(O)CC3CCC(C2)O3)c2cnn(-c3ccn[nH]3)c2n1` (configuration not stated) + Cc1cnc(CNC(=O)c2c(=O)c3ccc(N4CCCN(C)CC4)nc3n3c2sc2ccccc23)cn1, the viability, T/C is 18.2%.
On the same count and under the same terms, the result for `CC1COCCN1c1cc(C2(S(C)(=N)=O)CC2)nc(-c2ccnc3[nH]ccc23)n1` (configuration not stated) + Cc1cnc(CNC(=O)c2c(=O)c3ccc(N4CCCN(C)CC4)nc3n3c2sc2ccccc23)cn1 reads 42%; that for `COc1ccc([C@@H](O)c2cc(-c3ncnc4cc(N5CCOCC5)ccc34)c(F)cc2Cl)nn1` + Cc1cnc(CNC(=O)c2c(=O)c3ccc(N4CCCN(C)CC4)nc3n3c2sc2ccccc23)cn1, 39.7%.

The same experiment, now with this note: second compound 3.16 µM; first compound 10 µM; hits give low values; spheroids with HUVEC and MSC.
Consider `CC1COCCN1c1cc(-c2ccnn2C)c2ccnc(-c3ccn[nH]3)c2n1` (configuration not stated) + Cc1cnc(CNC(=O)c2c(=O)c3ccc(N4CCCN(C)CC4)nc3n3c2sc2ccccc23)cn1, for which the viability, T/C is 20.3%.
Same read-out and setting: the result for `CC1COCCN1c1cc(C2(O)CC3CCC(C2)O3)c2cnn(-c3ccn[nH]3)c2n1` (configuration not stated) + Cc1cnc(CNC(=O)c2c(=O)c3ccc(N4CCCN(C)CC4)nc3n3c2sc2ccccc23)cn1 reads 7.65%.
Still for that read-out and setting: the result for `CC1COCCN1c1cc(C2(S(C)(=N)=O)CC2)nc(-c2ccnc3[nH]ccc23)n1` (configuration not stated) + Cc1cnc(CNC(=O)c2c(=O)c3ccc(N4CCCN(C)CC4)nc3n3c2sc2ccccc23)cn1 reads 38.4%; that for `COc1ccc([C@@H](O)c2cc(-c3ncnc4cc(N5CCOCC5)ccc34)c(F)cc2Cl)nn1` + Cc1cnc(CNC(=O)c2c(=O)c3ccc(N4CCCN(C)CC4)nc3n3c2sc2ccccc23)cn1, 27.3%.

The experiment is the same for the next values; noted with them: second compound 10 µM; first compound 0.0316 µM; hits give low values; spheroids with HUVEC and MSC.
Regarding `CC1COCCN1c1cc(-c2ccnn2C)c2ccnc(-c3ccn[nH]3)c2n1` (configuration not stated) + Cc1cnc(CNC(=O)c2c(=O)c3ccc(N4CCCN(C)CC4)nc3n3c2sc2ccccc23)cn1, the viability, T/C is 0.13%.
Still for that read-out and setting: to `CC1COCCN1c1cc(C2(O)CC3CCC(C2)O3)c2cnn(-c3ccn[nH]3)c2n1` (configuration not stated) + Cc1cnc(CNC(=O)c2c(=O)c3ccc(N4CCCN(C)CC4)nc3n3c2sc2ccccc23)cn1 belongs 0.12%; to `CC1COCCN1c1cc(C2(S(C)(=N)=O)CC2)nc(-c2ccnc3[nH]ccc23)n1` (configuration not stated) + Cc1cnc(CNC(=O)c2c(=O)c3ccc(N4CCCN(C)CC4)nc3n3c2sc2ccccc23)cn1, 0.26%; to `COc1ccc([C@@H](O)c2cc(-c3ncnc4cc(N5CCOCC5)ccc34)c(F)cc2Cl)nn1` + Cc1cnc(CNC(=O)c2c(=O)c3ccc(N4CCCN(C)CC4)nc3n3c2sc2ccccc23)cn1, 0.28%.

Staying with this experiment, now noted: second compound 10 µM; first compound 0.1 µM; hits give low values; spheroids with HUVEC and MSC.
For `CC1COCCN1c1cc(-c2ccnn2C)c2ccnc(-c3ccn[nH]3)c2n1` (configuration not stated) + Cc1cnc(CNC(=O)c2c(=O)c3ccc(N4CCCN(C)CC4)nc3n3c2sc2ccccc23)cn1, the viability, T/C was 0.16%.
`CC1COCCN1c1cc(C2(O)CC3CCC(C2)O3)c2cnn(-c3ccn[nH]3)c2n1` (configuration not stated) + Cc1cnc(CNC(=O)c2c(=O)c3ccc(N4CCCN(C)CC4)nc3n3c2sc2ccccc23)cn1: the viability, T/C is 0.16%.
On the same count and under the same terms, the result for `CC1COCCN1c1cc(C2(S(C)(=N)=O)CC2)nc(-c2ccnc3[nH]ccc23)n1` (configuration not stated) + Cc1cnc(CNC(=O)c2c(=O)c3ccc(N4CCCN(C)CC4)nc3n3c2sc2ccccc23)cn1 reads 0.49%; that for `COc1ccc([C@@H](O)c2cc(-c3ncnc4cc(N5CCOCC5)ccc34)c(F)cc2Cl)nn1` + Cc1cnc(CNC(=O)c2c(=O)c3ccc(N4CCCN(C)CC4)nc3n3c2sc2ccccc23)cn1, 0.73%.

Staying with this experiment, now noted: second compound 10 µM; first compound 0.316 µM; hits give low values; spheroids with HUVEC and MSC.
Consider `CC1COCCN1c1cc(-c2ccnn2C)c2ccnc(-c3ccn[nH]3)c2n1` (configuration not stated) + Cc1cnc(CNC(=O)c2c(=O)c3ccc(N4CCCN(C)CC4)nc3n3c2sc2ccccc23)cn1, for which the viability, T/C is 2.37%.
Still for that read-out and setting: the result for `CC1COCCN1c1cc(C2(O)CC3CCC(C2)O3)c2cnn(-c3ccn[nH]3)c2n1` (configuration not stated) + Cc1cnc(CNC(=O)c2c(=O)c3ccc(N4CCCN(C)CC4)nc3n3c2sc2ccccc23)cn1 reads 0.21%.
Still for that read-out and setting: the result for `CC1COCCN1c1cc(C2(S(C)(=N)=O)CC2)nc(-c2ccnc3[nH]ccc23)n1` (configuration not stated) + Cc1cnc(CNC(=O)c2c(=O)c3ccc(N4CCCN(C)CC4)nc3n3c2sc2ccccc23)cn1 reads 0.34%.
On the same count and under the same terms, to `COc1ccc([C@@H](O)c2cc(-c3ncnc4cc(N5CCOCC5)ccc34)c(F)cc2Cl)nn1` + Cc1cnc(CNC(=O)c2c(=O)c3ccc(N4CCCN(C)CC4)nc3n3c2sc2ccccc23)cn1 belongs 0.4%.

Still in this experiment, the particulars now being: second compound 10 µM; first compound 1 µM; hits give low values; spheroids with HUVEC and MSC.
For the compound `CC1COCCN1c1cc(-c2ccnn2C)c2ccnc(-c3ccn[nH]3)c2n1` (configuration not stated) + Cc1cnc(CNC(=O)c2c(=O)c3ccc(N4CCCN(C)CC4)nc3n3c2sc2ccccc23)cn1, the viability, T/C was 0.14%.
The same measure, in the same setting: the result for `CC1COCCN1c1cc(C2(O)CC3CCC(C2)O3)c2cnn(-c3ccn[nH]3)c2n1` (configuration not stated) + Cc1cnc(CNC(=O)c2c(=O)c3ccc(N4CCCN(C)CC4)nc3n3c2sc2ccccc23)cn1 reads 0.15%.
Same read-out and setting: the result for `CC1COCCN1c1cc(C2(S(C)(=N)=O)CC2)nc(-c2ccnc3[nH]ccc23)n1` (configuration not stated) + Cc1cnc(CNC(=O)c2c(=O)c3ccc(N4CCCN(C)CC4)nc3n3c2sc2ccccc23)cn1 reads 0.88%; that for `COc1ccc([C@@H](O)c2cc(-c3ncnc4cc(N5CCOCC5)ccc34)c(F)cc2Cl)nn1` + Cc1cnc(CNC(=O)c2c(=O)c3ccc(N4CCCN(C)CC4)nc3n3c2sc2ccccc23)cn1, 0.39%.

Staying with this experiment, now noted: second compound 10 µM; first compound 3.16 µM; hits give low values; spheroids with HUVEC and MSC.
As for `CC1COCCN1c1cc(-c2ccnn2C)c2ccnc(-c3ccn[nH]3)c2n1` (configuration not stated) + Cc1cnc(CNC(=O)c2c(=O)c3ccc(N4CCCN(C)CC4)nc3n3c2sc2ccccc23)cn1, the viability, T/C is 0.16%.
Still for that read-out and setting: the result for `CC1COCCN1c1cc(C2(O)CC3CCC(C2)O3)c2cnn(-c3ccn[nH]3)c2n1` (configuration not stated) + Cc1cnc(CNC(=O)c2c(=O)c3ccc(N4CCCN(C)CC4)nc3n3c2sc2ccccc23)cn1 reads 0.23%; that for `CC1COCCN1c1cc(C2(S(C)(=N)=O)CC2)nc(-c2ccnc3[nH]ccc23)n1` (configuration not stated) + Cc1cnc(CNC(=O)c2c(=O)c3ccc(N4CCCN(C)CC4)nc3n3c2sc2ccccc23)cn1, 0.61%.
Same read-out and setting: the result for `COc1ccc([C@@H](O)c2cc(-c3ncnc4cc(N5CCOCC5)ccc34)c(F)cc2Cl)nn1` + Cc1cnc(CNC(=O)c2c(=O)c3ccc(N4CCCN(C)CC4)nc3n3c2sc2ccccc23)cn1 reads 0.33%.

Still in this experiment, the particulars now being: second compound 10 µM; first compound 10 µM; hits give low values; spheroids with HUVEC and MSC.
Turning to `CC1COCCN1c1cc(-c2ccnn2C)c2ccnc(-c3ccn[nH]3)c2n1` (configuration not stated) + Cc1cnc(CNC(=O)c2c(=O)c3ccc(N4CCCN(C)CC4)nc3n3c2sc2ccccc23)cn1, the viability, T/C is 0.17%.
Same read-out and setting: the result for `CC1COCCN1c1cc(C2(O)CC3CCC(C2)O3)c2cnn(-c3ccn[nH]3)c2n1` (configuration not stated) + Cc1cnc(CNC(=O)c2c(=O)c3ccc(N4CCCN(C)CC4)nc3n3c2sc2ccccc23)cn1 reads 0.19%.
Same read-out and setting: the result for `CC1COCCN1c1cc(C2(S(C)(=N)=O)CC2)nc(-c2ccnc3[nH]ccc23)n1` (configuration not stated) + Cc1cnc(CNC(=O)c2c(=O)c3ccc(N4CCCN(C)CC4)nc3n3c2sc2ccccc23)cn1 reads 0.35%.
Still for that read-out and setting: to `COc1ccc([C@@H](O)c2cc(-c3ncnc4cc(N5CCOCC5)ccc34)c(F)cc2Cl)nn1` + Cc1cnc(CNC(=O)c2c(=O)c3ccc(N4CCCN(C)CC4)nc3n3c2sc2ccccc23)cn1 belongs 0.28%.
